In ChEMBL document CHEMBL4507268 (2021):

Tests used:
Conditions in all cases: Compound concentration 1.0 uM
[1] = target: Serine/threonine-protein kinase 26 (Homo sapiens) (UniProt Q9P289)
[2] = target: SRSF protein kinase 3 (Homo sapiens) (UniProt Q9UPE1)
[3] = target: Eukaryotic translation initiation factor 2-alpha kinase 3 (Homo sapiens) (UniProt Q9NZJ5)
[4] = target: T1, Serine/threonine-protein kinase TBK1 (Homo sapiens) (UniProt Q9UHD2)
T1 sequence (whole entry): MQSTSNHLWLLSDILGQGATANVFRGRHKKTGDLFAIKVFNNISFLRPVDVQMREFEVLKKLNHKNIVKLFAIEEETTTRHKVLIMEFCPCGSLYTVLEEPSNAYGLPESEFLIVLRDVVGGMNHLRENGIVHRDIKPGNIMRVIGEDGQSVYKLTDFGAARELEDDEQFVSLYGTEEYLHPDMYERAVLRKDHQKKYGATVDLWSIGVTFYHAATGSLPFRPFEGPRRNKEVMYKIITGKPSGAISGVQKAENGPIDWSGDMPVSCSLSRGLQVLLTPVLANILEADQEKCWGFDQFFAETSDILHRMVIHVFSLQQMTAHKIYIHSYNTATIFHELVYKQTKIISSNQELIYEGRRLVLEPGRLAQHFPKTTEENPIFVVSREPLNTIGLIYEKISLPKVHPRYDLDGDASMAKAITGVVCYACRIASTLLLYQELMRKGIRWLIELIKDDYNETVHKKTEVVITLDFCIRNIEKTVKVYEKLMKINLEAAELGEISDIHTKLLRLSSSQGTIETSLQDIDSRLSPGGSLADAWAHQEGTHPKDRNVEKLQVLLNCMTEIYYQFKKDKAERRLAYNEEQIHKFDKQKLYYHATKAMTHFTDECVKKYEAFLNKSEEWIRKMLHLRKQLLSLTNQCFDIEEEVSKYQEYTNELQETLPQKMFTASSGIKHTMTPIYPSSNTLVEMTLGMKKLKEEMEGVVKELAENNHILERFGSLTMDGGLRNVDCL

[5] = target: T2, Bone morphogenetic protein receptor type-2 (Homo sapiens) (UniProt Q13873)
T2 sequence (whole entry): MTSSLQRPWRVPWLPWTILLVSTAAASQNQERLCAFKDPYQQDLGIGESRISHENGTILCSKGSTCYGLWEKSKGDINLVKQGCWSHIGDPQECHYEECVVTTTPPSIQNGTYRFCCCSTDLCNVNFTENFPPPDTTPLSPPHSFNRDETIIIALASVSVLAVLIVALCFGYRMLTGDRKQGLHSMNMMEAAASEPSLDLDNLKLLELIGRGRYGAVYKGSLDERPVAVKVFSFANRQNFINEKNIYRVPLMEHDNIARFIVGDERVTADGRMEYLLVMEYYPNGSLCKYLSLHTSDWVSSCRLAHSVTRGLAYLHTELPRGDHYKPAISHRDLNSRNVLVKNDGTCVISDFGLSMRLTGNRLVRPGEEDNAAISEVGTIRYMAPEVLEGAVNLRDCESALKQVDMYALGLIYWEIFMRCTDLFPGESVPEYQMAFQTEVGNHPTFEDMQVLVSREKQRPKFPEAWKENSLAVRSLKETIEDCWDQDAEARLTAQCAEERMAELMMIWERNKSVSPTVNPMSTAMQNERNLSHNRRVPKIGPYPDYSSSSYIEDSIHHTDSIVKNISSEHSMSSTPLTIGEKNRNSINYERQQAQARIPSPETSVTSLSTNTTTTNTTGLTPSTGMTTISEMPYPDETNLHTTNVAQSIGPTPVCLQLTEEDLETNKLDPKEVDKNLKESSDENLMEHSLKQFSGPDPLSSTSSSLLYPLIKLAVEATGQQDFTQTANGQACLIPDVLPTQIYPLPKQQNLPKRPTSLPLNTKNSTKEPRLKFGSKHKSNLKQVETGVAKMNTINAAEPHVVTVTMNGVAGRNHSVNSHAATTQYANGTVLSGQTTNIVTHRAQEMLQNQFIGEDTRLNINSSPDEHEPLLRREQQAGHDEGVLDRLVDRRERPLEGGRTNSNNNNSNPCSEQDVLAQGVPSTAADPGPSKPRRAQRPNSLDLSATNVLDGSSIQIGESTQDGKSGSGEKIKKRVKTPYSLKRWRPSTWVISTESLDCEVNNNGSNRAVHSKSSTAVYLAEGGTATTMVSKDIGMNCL

[6] = target: Serine/threonine-protein kinase PLK2 (Homo sapiens) (UniProt Q9NYY3)
Serine/threonine-protein kinase PLK2 (Homo sapiens), sequence (Q9NYY3 whole entry, looked up): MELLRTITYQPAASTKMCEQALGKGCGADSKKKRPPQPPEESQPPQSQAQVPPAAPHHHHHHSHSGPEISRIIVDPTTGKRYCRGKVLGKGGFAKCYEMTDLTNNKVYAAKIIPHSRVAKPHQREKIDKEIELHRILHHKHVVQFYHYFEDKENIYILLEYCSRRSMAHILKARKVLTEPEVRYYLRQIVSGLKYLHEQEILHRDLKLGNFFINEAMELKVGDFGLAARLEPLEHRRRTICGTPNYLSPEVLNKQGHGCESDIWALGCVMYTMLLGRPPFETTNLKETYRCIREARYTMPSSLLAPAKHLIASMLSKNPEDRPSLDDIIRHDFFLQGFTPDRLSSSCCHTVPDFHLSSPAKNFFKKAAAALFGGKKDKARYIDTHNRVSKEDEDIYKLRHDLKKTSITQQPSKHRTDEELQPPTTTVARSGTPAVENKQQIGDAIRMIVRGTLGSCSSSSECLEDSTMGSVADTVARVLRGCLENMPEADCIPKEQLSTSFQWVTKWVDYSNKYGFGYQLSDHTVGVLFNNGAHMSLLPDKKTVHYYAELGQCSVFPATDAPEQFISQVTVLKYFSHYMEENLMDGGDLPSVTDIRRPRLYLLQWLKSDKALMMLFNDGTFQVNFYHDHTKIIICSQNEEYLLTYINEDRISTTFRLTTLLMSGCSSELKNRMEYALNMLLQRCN

[7] = target: T3, cGMP-dependent protein kinase 1 (Homo sapiens) (UniProt Q13976)
T3 sequence (whole entry): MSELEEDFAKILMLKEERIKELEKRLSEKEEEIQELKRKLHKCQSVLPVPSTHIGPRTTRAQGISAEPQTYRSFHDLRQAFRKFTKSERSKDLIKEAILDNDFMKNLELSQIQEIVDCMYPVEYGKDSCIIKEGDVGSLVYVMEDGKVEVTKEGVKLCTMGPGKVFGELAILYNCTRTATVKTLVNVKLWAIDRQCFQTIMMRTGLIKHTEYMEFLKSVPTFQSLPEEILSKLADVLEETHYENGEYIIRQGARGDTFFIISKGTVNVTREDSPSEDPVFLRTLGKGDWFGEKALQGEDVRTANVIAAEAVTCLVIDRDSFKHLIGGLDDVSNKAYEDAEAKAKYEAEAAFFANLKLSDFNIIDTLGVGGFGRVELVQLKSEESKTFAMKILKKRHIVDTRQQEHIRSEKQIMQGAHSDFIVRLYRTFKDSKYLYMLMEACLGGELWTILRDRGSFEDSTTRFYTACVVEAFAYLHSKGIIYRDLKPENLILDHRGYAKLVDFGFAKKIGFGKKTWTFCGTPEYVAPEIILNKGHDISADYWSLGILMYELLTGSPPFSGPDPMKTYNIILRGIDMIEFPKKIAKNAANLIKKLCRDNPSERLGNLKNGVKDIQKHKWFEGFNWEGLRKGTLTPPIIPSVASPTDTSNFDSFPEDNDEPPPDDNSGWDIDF

[8] = target: Homeodomain-interacting protein kinase 1 (Homo sapiens) (UniProt Q86Z02)
Homeodomain-interacting protein kinase 1 (Homo sapiens), sequence (Q86Z02 whole entry, looked up): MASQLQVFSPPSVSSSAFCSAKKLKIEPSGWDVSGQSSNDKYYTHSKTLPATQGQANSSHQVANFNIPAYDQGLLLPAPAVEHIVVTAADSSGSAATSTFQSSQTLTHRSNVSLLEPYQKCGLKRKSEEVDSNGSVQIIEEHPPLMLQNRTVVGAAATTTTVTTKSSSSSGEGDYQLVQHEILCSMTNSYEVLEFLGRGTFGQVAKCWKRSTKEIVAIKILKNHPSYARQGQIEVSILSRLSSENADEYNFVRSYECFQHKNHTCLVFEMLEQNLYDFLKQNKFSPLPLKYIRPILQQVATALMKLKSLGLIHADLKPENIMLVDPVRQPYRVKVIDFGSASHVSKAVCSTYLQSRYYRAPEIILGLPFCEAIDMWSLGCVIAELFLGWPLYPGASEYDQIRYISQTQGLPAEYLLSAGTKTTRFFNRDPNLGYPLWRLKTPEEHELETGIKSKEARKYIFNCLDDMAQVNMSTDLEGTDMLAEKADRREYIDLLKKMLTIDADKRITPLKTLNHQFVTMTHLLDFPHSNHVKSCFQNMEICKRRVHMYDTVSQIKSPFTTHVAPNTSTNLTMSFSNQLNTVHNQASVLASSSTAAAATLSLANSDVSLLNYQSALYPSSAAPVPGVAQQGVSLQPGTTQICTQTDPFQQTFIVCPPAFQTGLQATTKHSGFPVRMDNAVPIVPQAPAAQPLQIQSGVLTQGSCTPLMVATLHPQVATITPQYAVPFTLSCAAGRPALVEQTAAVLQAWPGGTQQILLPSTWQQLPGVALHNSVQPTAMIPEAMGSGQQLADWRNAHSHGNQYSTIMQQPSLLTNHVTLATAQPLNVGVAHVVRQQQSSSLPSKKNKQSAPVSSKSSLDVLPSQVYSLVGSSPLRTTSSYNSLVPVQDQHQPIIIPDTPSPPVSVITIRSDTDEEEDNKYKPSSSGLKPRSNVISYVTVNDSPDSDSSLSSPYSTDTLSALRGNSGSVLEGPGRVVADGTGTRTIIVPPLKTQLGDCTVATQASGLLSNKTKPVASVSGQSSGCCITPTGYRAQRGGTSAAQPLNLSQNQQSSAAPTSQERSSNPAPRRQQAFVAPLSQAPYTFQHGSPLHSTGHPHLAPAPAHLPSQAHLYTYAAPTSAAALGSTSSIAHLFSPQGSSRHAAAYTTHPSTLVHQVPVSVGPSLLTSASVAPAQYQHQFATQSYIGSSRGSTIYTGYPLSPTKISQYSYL

[9] = target: Cyclin-dependent kinase 1/cyclin B (Homo sapiens) (UniProt P06493+P14635+Q8WWL7+O95067)
[10] = target: High affinity nerve growth factor receptor (Homo sapiens) (UniProt P04629)
High affinity nerve growth factor receptor (Homo sapiens), sequence (P04629 33-796 limits assumed): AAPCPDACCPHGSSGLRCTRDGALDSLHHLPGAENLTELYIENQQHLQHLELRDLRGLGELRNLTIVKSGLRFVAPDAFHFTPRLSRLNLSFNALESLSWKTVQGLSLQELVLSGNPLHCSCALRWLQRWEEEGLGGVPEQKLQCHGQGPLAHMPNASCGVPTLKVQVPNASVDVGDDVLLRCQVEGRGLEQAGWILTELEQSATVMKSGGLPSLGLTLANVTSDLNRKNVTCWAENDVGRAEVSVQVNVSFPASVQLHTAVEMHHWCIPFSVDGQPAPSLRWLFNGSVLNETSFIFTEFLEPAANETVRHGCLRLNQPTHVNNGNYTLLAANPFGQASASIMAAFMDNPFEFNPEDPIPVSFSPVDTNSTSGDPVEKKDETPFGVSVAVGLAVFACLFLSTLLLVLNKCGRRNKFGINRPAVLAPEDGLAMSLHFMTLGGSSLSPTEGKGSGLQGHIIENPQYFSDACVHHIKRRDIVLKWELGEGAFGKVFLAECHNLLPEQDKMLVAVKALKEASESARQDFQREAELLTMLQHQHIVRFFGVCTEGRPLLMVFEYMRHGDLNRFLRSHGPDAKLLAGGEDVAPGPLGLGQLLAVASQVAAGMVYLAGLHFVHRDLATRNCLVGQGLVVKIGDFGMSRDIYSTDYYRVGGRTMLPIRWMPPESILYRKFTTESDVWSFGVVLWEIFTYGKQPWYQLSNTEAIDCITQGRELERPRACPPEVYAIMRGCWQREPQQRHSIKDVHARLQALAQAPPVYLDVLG

[11] = target: Tyrosine-protein kinase JAK1 (Homo sapiens) (UniProt P23458)
[12] = target: T3, cGMP-dependent protein kinase 1 (Homo sapiens); remark: listed apart in the source

Measured: % residual kinase activity

Serine/threonine-protein kinase 26 (Homo sapiens), sequence (Q9P289 2-416 limits assumed): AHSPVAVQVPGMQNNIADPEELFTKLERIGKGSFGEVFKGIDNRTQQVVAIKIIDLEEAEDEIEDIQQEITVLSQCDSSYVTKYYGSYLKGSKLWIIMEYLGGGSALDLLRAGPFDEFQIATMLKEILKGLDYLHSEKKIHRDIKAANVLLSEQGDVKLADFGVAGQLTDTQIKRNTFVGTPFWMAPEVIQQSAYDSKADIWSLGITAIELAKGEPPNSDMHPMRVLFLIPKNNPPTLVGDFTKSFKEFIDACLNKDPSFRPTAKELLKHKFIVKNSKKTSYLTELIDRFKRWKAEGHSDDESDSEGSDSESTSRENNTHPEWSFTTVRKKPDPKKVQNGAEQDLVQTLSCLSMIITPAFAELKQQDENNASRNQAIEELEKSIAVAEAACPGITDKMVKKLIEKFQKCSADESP
Eukaryotic translation initiation factor 2-alpha kinase 3 (Homo sapiens), sequence (Q9NZJ5 whole entry): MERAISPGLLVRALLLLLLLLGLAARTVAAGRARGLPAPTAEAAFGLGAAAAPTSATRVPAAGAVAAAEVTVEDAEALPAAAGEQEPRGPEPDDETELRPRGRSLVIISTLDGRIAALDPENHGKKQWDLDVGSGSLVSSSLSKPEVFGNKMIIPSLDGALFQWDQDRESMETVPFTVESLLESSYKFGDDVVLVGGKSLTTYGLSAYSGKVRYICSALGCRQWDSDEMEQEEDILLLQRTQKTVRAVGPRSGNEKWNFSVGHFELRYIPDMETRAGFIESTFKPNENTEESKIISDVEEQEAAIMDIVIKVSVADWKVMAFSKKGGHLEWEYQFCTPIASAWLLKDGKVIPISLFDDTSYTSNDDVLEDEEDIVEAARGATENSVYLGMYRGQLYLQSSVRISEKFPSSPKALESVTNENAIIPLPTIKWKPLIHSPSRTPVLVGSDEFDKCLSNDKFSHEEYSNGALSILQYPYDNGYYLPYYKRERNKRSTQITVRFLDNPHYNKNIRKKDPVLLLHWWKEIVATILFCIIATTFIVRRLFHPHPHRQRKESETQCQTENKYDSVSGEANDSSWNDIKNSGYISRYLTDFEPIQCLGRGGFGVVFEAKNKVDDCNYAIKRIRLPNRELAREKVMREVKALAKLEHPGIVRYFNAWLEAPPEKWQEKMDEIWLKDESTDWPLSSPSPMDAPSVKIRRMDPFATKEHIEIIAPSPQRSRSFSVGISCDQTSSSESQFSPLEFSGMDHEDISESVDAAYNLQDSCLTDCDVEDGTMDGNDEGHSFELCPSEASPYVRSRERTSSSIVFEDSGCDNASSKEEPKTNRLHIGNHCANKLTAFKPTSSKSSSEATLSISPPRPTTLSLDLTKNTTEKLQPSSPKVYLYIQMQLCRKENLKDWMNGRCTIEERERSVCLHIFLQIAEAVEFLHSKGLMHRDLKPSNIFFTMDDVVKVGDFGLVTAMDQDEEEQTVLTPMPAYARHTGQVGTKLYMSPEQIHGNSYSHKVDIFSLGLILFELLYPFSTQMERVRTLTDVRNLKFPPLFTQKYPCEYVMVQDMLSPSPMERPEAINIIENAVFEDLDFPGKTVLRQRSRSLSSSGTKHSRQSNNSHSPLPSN
SRSF protein kinase 3 (Homo sapiens), sequence (Q9UPE1 whole entry): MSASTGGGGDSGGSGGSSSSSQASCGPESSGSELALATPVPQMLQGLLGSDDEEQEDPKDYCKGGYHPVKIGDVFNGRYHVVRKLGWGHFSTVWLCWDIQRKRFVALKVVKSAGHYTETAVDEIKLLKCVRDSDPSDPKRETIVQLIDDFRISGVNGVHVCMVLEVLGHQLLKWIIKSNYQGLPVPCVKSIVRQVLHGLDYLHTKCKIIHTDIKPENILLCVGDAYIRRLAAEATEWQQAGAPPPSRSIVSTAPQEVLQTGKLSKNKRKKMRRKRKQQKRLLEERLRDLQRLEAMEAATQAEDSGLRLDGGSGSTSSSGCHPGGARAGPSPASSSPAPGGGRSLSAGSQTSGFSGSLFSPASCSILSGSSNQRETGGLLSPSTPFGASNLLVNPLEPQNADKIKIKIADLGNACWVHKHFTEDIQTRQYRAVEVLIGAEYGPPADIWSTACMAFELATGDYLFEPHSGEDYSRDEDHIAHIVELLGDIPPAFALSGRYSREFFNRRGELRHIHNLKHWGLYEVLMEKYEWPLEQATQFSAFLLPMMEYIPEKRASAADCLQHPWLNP

CN1CCN(c2cnc3c(C4CCN(C(=O)c5ccc(OC(F)(F)F)cc5N)CC4)ncnc3c2)CC1 [BAY-885]
inactive: [1] 103% | [2] 78% | [3] 100% | [4] 118% | [5] 100% | [6] 119% | [7] 122% | [8] 116% | [9] 101% | [10] 110% | [11] 104% | [12] 115%
